From patent publication US9963448B2, “Bicyclic inhibitors of PAD4” (Padlock Therapeutics, Inc., priority 2015, dated 2018) come the findings set out here.

Assay [1] has as its target mPAD4 (Mus musculus, UniProt Q9Z183). Kind of assay: mPAD4 RFMS PAD4 inhibition assay.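 On mPAD4 RFMS pIC50: grade E means pIC50 at most 4 and F means pIC50 4.0 to 5.0.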 It counts as biochemical. Conditions: mPAD4, RFMS readout. The protocol:
(§1) Compounds of the present invention were assayed as inhibitors of PAD4 using the assay protocol described below.
(§2) Compound stock solutions were stored at RT. […] Final assay conditions were as follows:
(§3) Total incubation time: 65 mins at 37° C.
(§4) Stop solution: 40 μl 5% TCA in ACN
(§5) The compound numbers correspond to the compound numbers in Table 1. […] The term pIC50=−log(IC50). […] “NA” stands for “not assayed.”

Assay [2] deals with hPAD4 (Homo sapiens, UniProt Q9UM07). Briefly: hPAD4 RFMS (RapidFire mass spectrometry) PAD4 inhibition assay.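 On hPAD4 RFMS pIC50: grade E means pIC50 at most 4 and F means pIC50 4.0 to 5.0.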 The class given is biochemical. Particulars: hPAD4 enzyme, RFMS readout. How it is done: as §1, §2, §3, §4, §5
Where [3] appears, read: pIC50=−log(IC50), read-out: mPAD4 RFMS pIC50 (converted).
Where [4] appears, read: pIC50=−log(IC50), read-out: hPAD4 RFMS pIC50 (converted).

Where a name gives a salt, the structure may show the parent alone. Read-outs that look alike come from different tables or passages of the source. Some results are limits rather than exact numbers.

Sequence of hPAD4 (Q9UM07 whole entry): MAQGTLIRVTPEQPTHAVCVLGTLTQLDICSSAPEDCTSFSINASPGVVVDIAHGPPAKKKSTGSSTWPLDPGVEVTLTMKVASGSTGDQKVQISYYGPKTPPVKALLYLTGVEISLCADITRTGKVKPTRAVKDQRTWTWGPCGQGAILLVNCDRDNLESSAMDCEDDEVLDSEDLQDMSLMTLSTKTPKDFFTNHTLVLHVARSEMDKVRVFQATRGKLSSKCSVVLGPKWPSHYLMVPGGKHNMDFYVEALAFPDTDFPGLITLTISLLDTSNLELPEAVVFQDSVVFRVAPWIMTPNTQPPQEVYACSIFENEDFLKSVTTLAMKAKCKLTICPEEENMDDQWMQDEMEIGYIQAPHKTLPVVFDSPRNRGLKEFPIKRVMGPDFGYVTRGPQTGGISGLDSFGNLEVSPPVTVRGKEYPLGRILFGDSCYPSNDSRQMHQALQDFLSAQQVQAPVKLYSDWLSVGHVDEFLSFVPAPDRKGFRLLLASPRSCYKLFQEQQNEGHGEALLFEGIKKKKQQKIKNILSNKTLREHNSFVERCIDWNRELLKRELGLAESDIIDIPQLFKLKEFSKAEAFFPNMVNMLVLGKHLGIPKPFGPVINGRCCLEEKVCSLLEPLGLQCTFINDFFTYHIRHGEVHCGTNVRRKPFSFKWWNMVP
Sequence of mPAD4 (Q9Z183 whole entry): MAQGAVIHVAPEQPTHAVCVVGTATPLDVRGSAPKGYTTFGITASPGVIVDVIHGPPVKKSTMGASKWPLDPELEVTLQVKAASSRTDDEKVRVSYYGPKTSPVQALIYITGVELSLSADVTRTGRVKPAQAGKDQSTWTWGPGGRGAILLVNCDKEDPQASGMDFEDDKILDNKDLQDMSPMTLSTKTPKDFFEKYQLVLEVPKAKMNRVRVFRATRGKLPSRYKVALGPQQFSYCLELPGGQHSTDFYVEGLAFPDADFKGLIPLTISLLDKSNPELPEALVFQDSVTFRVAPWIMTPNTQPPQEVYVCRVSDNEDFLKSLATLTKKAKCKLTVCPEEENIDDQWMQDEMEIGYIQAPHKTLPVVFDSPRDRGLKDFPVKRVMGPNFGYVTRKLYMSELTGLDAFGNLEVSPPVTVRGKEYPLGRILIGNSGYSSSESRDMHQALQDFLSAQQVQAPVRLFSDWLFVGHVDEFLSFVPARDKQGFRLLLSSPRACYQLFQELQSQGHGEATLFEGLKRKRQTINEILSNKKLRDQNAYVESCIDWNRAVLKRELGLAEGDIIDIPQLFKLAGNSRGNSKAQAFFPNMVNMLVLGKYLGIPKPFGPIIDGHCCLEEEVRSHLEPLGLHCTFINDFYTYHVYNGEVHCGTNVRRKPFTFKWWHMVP

Take `COc1cc(C(=O)N2C[C@H](N)CC[C@H]2CO)cc2nc(-c3cc4cccnc4n3CC3CC3)n(C)c12` (racemic) [Compound I-220, Rac-[(2R,5S)-5-amino-1-{2-[1-(cyclopropylmethyl)-1H-pyrrolo[2,3-b]pyridin-2-yl]-7-methoxy-1-methyl-1H-1,3-benzodiazole-5-carbonyl}piperidin-2-yl]methanol]: the “mPAD4 RFMS pIC50” value in assay [1] (pIC50=−log(IC50)) is recorded as “E/F”. The IC50 in assay [1] (read-out: mPAD4 RFMS IC50) and in assay [2] (read-out: hPAD4 RFMS IC50) was over 10 µM in each case. Further, the “hPAD4 RFMS pIC50” value in assay [2] (pIC50=−log(IC50)) is reported as “E/F”.

For the compound `COc1cc(C(=O)N2C[C@H](N)CC[C@@H]2CO)cc2nc(-c3cc4cccnc4n3CC3CC3)n(C)c12` (racemic) [Compound I-221, rac-[(2R,5R)-5-amino-1-{2-[1-(cyclopropylmethyl)-1H-pyrrolo[2,3-b]pyridin-2-yl]-7-methoxy-1-methyl-1H-1,3-benzodiazole-5-carbonyl}piperidin-2-yl]methanol], the IC50 was 1 to 10 µM in assay [1] (setting [3]), 1 to 5 µM in assay [1] (read-out: mPAD4 RFMS IC50), 10 to 100 µM in assay [2] (setting [4]) and over 10 µM in assay [2] (read-out: hPAD4 RFMS IC50).

In the case of `Cn1c(-c2cc3cccnc3n2CC2CC2)nc2cc(C(=O)N3CC[C@H]4CCN[C@H]4C3)cc(OC(F)F)c21` (single isomer, unassigned) [Compound I-24, hydrochloride], the IC50 in assay [1] (setting [3]) is 10 to 100 µM; in assay [1] (read-out: mPAD4 RFMS IC50) it was over 10 µM; in assay [2] (setting [4]) it was 10 to 100 µM; in assay [2] (read-out: hPAD4 RFMS IC50), over 10 µM.

Regarding `Cn1c(-c2cc3cccnc3n2CC2CC2)nc2cc(C(=O)N3CC[C@H]4CCN[C@H]4C3)cc(OC(F)F)c21` (single isomer, unassigned) [Compound I-25, hydrochloride], the IC50 in assay [1] (setting [3]) was 1 to 10 µM; in assay [1] (read-out: mPAD4 RFMS IC50), 1 to 5 µM; in assay [2] (setting [4]), 1 to 10 µM; in assay [2] (read-out: hPAD4 RFMS IC50), 1 to 5 µM.

For `CO[C@@H]1CCN(C(=O)c2ccc3c(c2)nc(-c2cc4cccnc4n2CC2CC2)n3C)C[C@@H]1N` (single isomer, unassigned) [Compound I-64], the IC50 is 1 to 10 µM in assay [1] (setting [3]), 5 to 10 µM in assay [1] (read-out: mPAD4 RFMS IC50), 1 to 10 µM in assay [2] (setting [4]) and 1 to 5 µM in assay [2] (read-out: hPAD4 RFMS IC50).

On to `CO[C@H]1CCN(C(=O)c2ccc3c(c2)nc(-c2cc4cccnc4n2CC2CC2)n3C)C[C@H]1N` (single isomer, unassigned) [Compound I-65], for which the IC50 in assay [1] (setting [3]) is 10 to 100 µM; in assay [1] (read-out: mPAD4 RFMS IC50), over 10 µM; in assay [2] (setting [4]), 10 to 100 µM; in assay [2] (read-out: hPAD4 RFMS IC50), over 10 µM.

Take `COc1cc(C(=O)N2C[C@H](N)CC[C@H]2CO)cc2nc(-c3cc4cccnc4n3CC3CC3)n(C)c12` (single isomer, unassigned) [Compound I-226]: the “mPAD4 RFMS pIC50” value in assay [1] (pIC50=−log(IC50)) was “E/F”. Further, the IC50 in assay [1] (read-out: mPAD4 RFMS IC50) and in assay [2] (read-out: hPAD4 RFMS IC50) was over 10 µM throughout. The “hPAD4 RFMS pIC50” value in assay [2] (pIC50=−log(IC50)) is reported as “E/F”.

Turning to `COc1cc(C(=O)N2C[C@@H](N)CC[C@@H]2CO)cc2nc(-c3cc4cccnc4n3CC3CC3)n(C)c12` (single isomer, unassigned) [Compound I-227], in assay [1] (pIC50=−log(IC50)), the “mPAD4 RFMS pIC50” value is reported as “E/F”. For the same compound, the IC50 in assay [1] (read-out: mPAD4 RFMS IC50) was over 10 µM; in assay [2] (setting [4]), 10 to 100 µM; in assay [2] (read-out: hPAD4 RFMS IC50) it was over 10 µM.

In the case of `COc1cc(C(=O)N2C[C@H](N)CC[C@@H]2CO)cc2nc(-c3cc4cccnc4n3CC3CC3)n(C)c12` (single isomer, unassigned) [Compound I-228], the IC50 in assay [1] (setting [3]) is 1 to 10 µM; in assay [1] (read-out: mPAD4 RFMS IC50), 1 to 5 µM; in assay [2] (setting [4]), 1 to 10 µM; in assay [2] (read-out: hPAD4 RFMS IC50), 5 to 10 µM.

Regarding `COc1cc(C(=O)N2C[C@@H](N)CC[C@H]2CO)cc2nc(-c3cc4cccnc4n3CC3CC3)n(C)c12` (single isomer, unassigned) [Compound I-229], the IC50 was 1 to 10 µM in assay [1] (setting [3]), 5 to 10 µM in assay [1] (read-out: mPAD4 RFMS IC50), 10 to 100 µM in assay [2] (setting [4]) and over 10 µM in assay [2] (read-out: hPAD4 RFMS IC50).

`Cn1c(-c2cc3cncnc3n2CC2CC2)nc2cc(C(=O)N3CCC4CCNC4C3)ccc21` (stereo not drawn) [Compound I-9, 2-[7-(Cyclopropylmethyl)-7H-pyrrolo[2,3-d]pyrimidin-6-yl]-1-methyl-5-{octahydro-1H-pyrrolo[2,3-c]pyridine-6-carbonyl}-1H-1,3-benzodiazole]: the IC50 in assay [1] (setting [3]) is 10 to 100 µM; in assay [1] (read-out: mPAD4 RFMS IC50), over 10 µM; in assay [2] (setting [4]), 1 to 10 µM; in assay [2] (read-out: hPAD4 RFMS IC50), 5 to 10 µM.

`Cn1c(-c2cc3cccnc3n2CC2CC2)nc2cc(C(=O)N3CC[C@H]4CCN[C@H]4C3)ccc21` [Compound I-10]: the IC50 is 1 to 10 µM in assay [1] (setting [3]), 5 to 10 µM in assay [1] (read-out: mPAD4 RFMS IC50), 1 to 10 µM in assay [2] (setting [4]) and 1 to 5 µM in assay [2] (read-out: hPAD4 RFMS IC50).

For the compound `COc1cc(C(=O)N2CC[C@@H]3CCN[C@@H]3C2)cc2nc(-c3cc4cccnc4n3CC3CC3)n(C)c12` [Compound I-11], the IC50 in assay [1] (setting [3]), in assay [1] (read-out: mPAD4 RFMS IC50), in assay [2] (setting [4]) and in assay [2] (read-out: hPAD4 RFMS IC50) was under 1 µM throughout.

As to `COc1cc(C(=O)N2CC[C@H]3CCN[C@H]3C2)cc2nc(-c3cc4cncnc4n3CC3CC3)n(C)c12` [Compound I-12, 5-[(3aR,7aR)-octahydro-1H-pyrrolo[2,3-c]pyridine-6-carbonyl]-2-[7-(cyclopropylmethyl)-7H-pyrrolo[2,3-d]pyrimidin-6-yl]-7-methoxy-1-methyl-1H-1,3-benzodiazole], the IC50 in assay [1] (setting [3]) was 10 to 100 µM; in assay [1] (read-out: mPAD4 RFMS IC50), over 10 µM; in assay [2] (setting [4]), 1 to 10 µM; in assay [2] (read-out: hPAD4 RFMS IC50) it was 1 to 5 µM.

For `COc1cc(C(=O)N2CC[C@H]3CCN[C@H]3C2)cc2nc(-c3cc4cccnc4n3CC3CC3)n(C)c12` [Compound I-17], the IC50 is 10 to 100 µM in assay [1] (setting [3]), over 10 µM in assay [1] (read-out: mPAD4 RFMS IC50), 10 to 100 µM in assay [2] (setting [4]) and over 10 µM in assay [2] (read-out: hPAD4 RFMS IC50).

With `Cn1c(-c2cc3cccnc3n2CC2CC2)nc2cc(C(=O)N3CC[C@@H]4CCN[C@@H]4C3)ccc21` [Compound I-18], the IC50 was 10 to 100 µM in assay [1] (setting [3]), over 10 µM in assay [1] (read-out: mPAD4 RFMS IC50), 10 to 100 µM in assay [2] (setting [4]) and over 10 µM in assay [2] (read-out: hPAD4 RFMS IC50).

With `CCn1c(-c2cc3cccnc3n2CC2CC2)nc2cc(C(=O)N3CC[C@H]4CCN[C@H]4C3)cc(OC)c21` [Compound I-22], the IC50 is 10 to 100 µM in assay [1] (setting [3]), over 10 µM in assay [1] (read-out: mPAD4 RFMS IC50), 10 to 100 µM in assay [2] (setting [4]) and over 10 µM in assay [2] (read-out: hPAD4 RFMS IC50).

As for `CCn1c(-c2cc3cccnc3n2CC2CC2)nc2cc(C(=O)N3CC[C@@H]4CCN[C@@H]4C3)cc(OC)c21` [Compound I-23], the IC50 in assay [1] (setting [3]) was 1 to 10 µM; in assay [1] (read-out: mPAD4 RFMS IC50), 1 to 5 µM; in assay [2] (setting [4]) it was under 1 µM; in assay [2] (read-out: hPAD4 RFMS IC50), under 1 µM.

Consider `COc1cc(C(=O)N2CC3(CCCNC3)C2)cc2nc(-c3cc4cccnc4n3CC3CC3)n(C)c12` [Compound I-27], for which the IC50 in assay [1] (setting [3]) was 1 to 10 µM; in assay [1] (read-out: mPAD4 RFMS IC50), 1 to 5 µM; in assay [2] (setting [4]) it was 1 to 10 µM; in assay [2] (read-out: hPAD4 RFMS IC50) it was 1 to 5 µM.

`COc1cc(C(=O)N2CC[C@H]3OCCN[C@H]3C2)cc2nc(-c3cc4cccnc4n3CC3CC3)n(C)c12` [Compound I-28]: the IC50 in assay [1] (setting [3]), in assay [1] (read-out: mPAD4 RFMS IC50), in assay [2] (setting [4]) and in assay [2] (read-out: hPAD4 RFMS IC50) was under 1 µM each time.

For the compound `COc1cc(C(=O)N2CC[C@@H]3OCCN[C@@H]3C2)cc2nc(-c3cc4cccnc4n3CC3CC3)n(C)c12` [Compound I-29], the IC50 is 1 to 10 µM in assay [1] (setting [3]), 5 to 10 µM in assay [1] (read-out: mPAD4 RFMS IC50), 10 to 100 µM in assay [2] (setting [4]) and 5 to 10 µM in assay [2] (read-out: hPAD4 RFMS IC50).
